# Data taken from patent US20250145592A1 (NICO Therapeutics, Inc., priority 2022, published 2025).
# Read-outs that look alike come from different tables or passages of the source.
# Tested on: IL-1β secretion in THP-1 cells (NLRP3)
# Experiment: IL-1β secretion assay in PMA-differentiated THP-1 cells stimulated with LPS and nigericin (ELISA readout)
# Type: cell-based
# Conditions: IL-1β ELISA
# Experimental: Compounds as provided herein were tested in the following assay. Cell culture medium employed contained RPMI 1640 medium (89%), FBS (10%), Pen/Strep (1%), and 2-mercaptoethanol (0.05 mM). Freezing medium was made up of 90% FBS and 10% DMSO. THP-1 cells were removed from the liquid nitrogen and placed into a 37° C. water bath to thaw, until signs of ice dissipated. The cells were then added to 9 mL of warm cell culture medium and centrifuged for 5 minutes at 1000 rpm. The supernatant was discarded, and the cells were resuspended in new cell culture medium. THP-1 cells were then split and cultured in the cell culture medium, being passaged every 2-3 days with the cell density will be maintained between 5×10^5 and 1.5×10^6 viable cells/mL.
# To freeze, cells were resuspended with fresh freezing medium, adjusting the cell density to 5×10^6 cells/mL. The cell suspension was partitioned into 1 mL aliquots per vial, and the vials were transferred to a −80° C. freezer. After one day at −80° C., the cell vials were transferred to liquid nitrogen freezer for storage.
# PMA was dissolved in DMSO to make a stock solution at 5 mg/ml and stored in 10 μl aliquots at −20° C. for single use. PMA is added to normal growth medium. LPS was diluted with 1 mL of water solution to provide a 1 mg/mL stock solution and stored in 15 μl aliquots at −20° C. for single use. Nigericin is diluted in ice cold 100% ethanol to 5 mg/ml (6.7 mM) and stored in 75 μL aliquots at −20° C. for single use. Serum-free media contains RPMI 1640 medium (99%), Pen/Strep (1%), and 2-mercaptoethanol (0.05 mM). The two control conditions used to qualify and normalize test compound dose-response curves were as follows: High Control=25 ng/mL LPS, […], 0.5% DMSO, Low Control=25 ng/mL, LPS, 0.5% DMSO.
# THP-1 cells were diluted to provide a suspension at a concentration of 1.0×10^6 cells/mL with the total volume of suspension required to enable the desired number of assay plates. The growth media was supplemented with PMA (5 ng/mL final concentration) and the cells were incubated at 37° C. under a humidified atmosphere of 5% CO2 for 40 h.
# All media was carefully aspirated from each culture flask. The cells were washed carefully with 1×DPBS. The cells were then briefly digested with trypsin LE for 5 minutes at 23° C. and immediately resuspended in cell growth media. After resuspension, the cells were centrifuged at 1000 rpm for 3 minutes and the supernatant was discarded. The cells were resuspended in DPBS and once again centrifuged at 1000 rpm for 5 minutes. The supernatant was discarded and the cell pellet was resuspended in serum-free media supplemented with LPS (25 ng/mL final concentration) to enable the distribution of 30K THP-1 cells within 45 μL of media into each well of 384-well PDL-coated plates. The 384-well plates were then incubated at 37° C. under a humidified atmosphere of 5% CO2 for 2 h. Following this period, test compounds were dispensed by Tecan across the desired concentration range with all wells normalized to a final 0.5% DMSO concentration. The plates were then then incubated at 37° C. under a humidified atmosphere of 5% CO2 for 1 h. Following this period, 5 μL of the 5 mg/mL nigericin stock solution was added to each of the appropriate wells and plates were centrifuged at 1000 rpm for 30 seconds. The plates were the immediately reintroduced to the incubator at 37° C. under a humidified atmosphere of 5% CO2 for 2 h. After this time, 35 μL/well of supernatant was collected and transferred into v-bottom plate and centrifuged at 1000 rpm for 1 minute. These supernatant aliquots were analyzed using an IL-Iβ detection kit as described below. If needed, the test samples could be snap frozen and stored at −80° C. until analyzed.
# To prepare each ELISA plate, capture antibody (mAb Mt175) was diluted with PBS to a final concentration of […] and then 20 µL of this solution was added to each well of the ELISA plate.
# Each plate was allowed to incubate overnight at 4° C. […]
# [1] = Homo sapiens, THP-1, Table 3, LPS 25 ng/mL + nigericin, read-out: Activity (IC50 class)
# [2] = Homo sapiens, THP-1, Table 4, LPS 25 ng/mL + nigericin, read-out: Activity (IC50)
# [3] = Table 4, LPS 25 ng/mL + nigericin, read-out: Activity (IC50)
# [4] = Table 3, LPS 25 ng/mL + nigericin, read-out: Activity (IC50 class)
Structure (SMILES),IC50 [1] [nM],IC50 [2] [nM],IC50 [3] [nM],IC50 [4] [nM]
"CC[C@H]1C[C@@H]1Oc1nn(CC(=O)Nc2ncc(F)cn2)c(=O)c2ccc(Br)cc12 (relative stereo) [Example 51, 2-[6-bromo-4-[trans-2-ethylcyclopropyl]oxy-1-oxophthalazin-2-yl]-N-(5-fluoropyrimidin-2-yl)acetamide]",< 1000,790,,
"C[C@@H]1CC1Oc1nn(CC(=O)Nc2ncc(F)cn2)c(=O)c2ccc(Br)cc12 (single isomer, unassigned) [Example 2, 2-[6-bromo-4-[2-trans-methylcyclopropyl]oxy-1-oxophthalazin-2-yl]-N-(5-fluoropyrimidin-2-yl)acetamide]",< 1000,,202,
"C[C@@H]1CC1Oc1nn(CC(=O)Nc2ncc(F)cn2)c(=O)c2ccc(Br)cc12 (single isomer, unassigned) [Example 3, 2-[6-bromo-4-[2-trans-methylcyclopropyl]oxy-1-oxophthalazin-2-yl]-N-(5-fluoropyrimidin-2-yl)acetamide]",,,35,< 1000
"O=C(Cn1nc(OC2CC3(C2)CC3(F)F)c2cc(Br)ccc2c1=O)Nc1ncc(F)cn1 (single isomer, unassigned) [Example 5, 2-[6-bromo-4-(2,2-difluorospiro[2.3]hexan-5-yl)oxy-1-oxophthalazin-2-yl]-N-(5-fluoropyrimidin-2-yl)acetamide]",< 1000,,21,
"O=C(Cn1nc(OC2CC3(C2)CC3(F)F)c2cc(Br)ccc2c1=O)Nc1ncc(F)cn1 (single isomer, unassigned) [Example 6, 2-[6-bromo-4-(2,2-difluorospiro[2.3]hexan-5-yl)oxy-1-oxophthalazin-2-yl]-N-(5-fluoropyrimidin-2-yl)acetamide]",,,308,< 1000
"C[C@@H]1CC1Oc1nn(CC(=O)N[C@H]2C[C@@](C)(O)C2)c(=O)c2ccc(Br)cc12 (single isomer, unassigned) [Example 7, 2-[6-bromo-4-[trans-2-methylcyclopropyl]oxy-1-oxophthalazin-2-yl]-N-(cis-3-hydroxy-3-methylcyclobutyl)acetamide]",< 1000,,84,
"C[C@@H]1CC1Oc1nn(CC(=O)N[C@H]2C[C@@](C)(O)C2)c(=O)c2ccc(Br)cc12 (single isomer, unassigned) [Example 8, 2-[6-bromo-4-[trans-2-methylcyclopropyl]oxy-1-oxophthalazin-2-yl]-N-(cis-3-hydroxy-3-methylcyclobutyl)acetamide]",,,728,< 1000
"Cc1cnc(NC(=O)Cn2nc(OC3C[C@H]3C)c3cc(Br)ccc3c2=O)nc1 (single isomer, unassigned) [Example 9, 2-[6-bromo-4-[trans-2-methylcyclopropyl]oxy-1-oxophthalazin-2-yl]-N-(5-methylpyrimidin-2-yl)acetamide]",< 1000,,554,
"Cc1cnc(NC(=O)Cn2nc(OC3C[C@H]3C)c3cc(Br)ccc3c2=O)nc1 (single isomer, unassigned) [Example 10, 2-[6-bromo-4-[trans-2-methylcyclopropyl]oxy-1-oxophthalazin-2-yl]-N-(5-methylpyrimidin-2-yl)acetamide]",,,141,< 1000
"O=C(Cn1nc(OC2CC3(C2)CC3(F)F)c2cc(C3(F)CC3)ccc2c1=O)Nc1ncc(F)cn1 (single isomer, unassigned) [Example 13, 2-[4-(2,2-difluorospiro[2.3]hexan-5-yl)oxy-6-(1-fluorocyclopropyl)-1-oxophthalazin-2-yl]-N-(5-fluoropyrimidin-2-yl)acetamide]",< 1000,,34,
"O=C(Cn1nc(OC2CC3(C2)CC3(F)F)c2cc(C3(F)CC3)ccc2c1=O)Nc1ncc(F)cn1 (single isomer, unassigned) [Example 14, 2-[4-(2,2-difluorospiro[2.3]hexan-5-yl)oxy-6-(1-fluorocyclopropyl)-1-oxophthalazin-2-yl]-N-(5-fluoropyrimidin-2-yl)acetamide]",,,314,< 1000
"O=C(Cn1nc(OC2CC2(F)F)c2cc(Br)ccc2c1=O)Nc1ncc(F)cn1 (single isomer, unassigned) [Example 17, 2-[6-bromo-4-[2,2-difluorocyclopropyl]oxy-1-oxophthalazin-2-yl]-N-(5-fluoropyrimidin-2-yl)acetamide]",< 1000,,70,
"O=C(Cn1nc(OC2CC2(F)F)c2cc(Br)ccc2c1=O)Nc1ncc(F)cn1 (single isomer, unassigned) [Example 18, 2-[6-bromo-4-[2,2-difluorocyclopropyl]oxy-1-oxophthalazin-2-yl]-N-(5-fluoropyrimidin-2-yl)acetamide]",,,1510,1000 to 10000
"C[C@]1(O)C[C@@H](NC(=O)Cn2nc(OC3CC4(C3)CC4(F)F)c3cc(Br)ccc3c2=O)C1 (single isomer, unassigned) [Example 19, 2-[6-bromo-4-(2,2-difluorospiro[2.3]hexan-5-yl)oxy-1-oxophthalazin-2-yl]-N-(cis-3-hydroxy-3-methylcyclobutyl)acetamide]",< 1000,,179,
"C[C@]1(O)C[C@@H](NC(=O)Cn2nc(OC3CC4(C3)CC4(F)F)c3cc(Br)ccc3c2=O)C1 (single isomer, unassigned) [Example 20, 2-[6-bromo-4-(2,2-difluorospiro[2.3]hexan-5-yl)oxy-1-oxophthalazin-2-yl]-N-(cis-3-hydroxy-3-methylcyclobutyl)acetamide]",,,3400,1000 to 10000
"Cc1cnc(NC(=O)Cn2nc(OC3CC4(C3)CC4(F)F)c3cc(Br)ccc3c2=O)nc1 (single isomer, unassigned) [Example 21, 2-[6-bromo-4-(2,2-difluorospiro[2.3]hexan-5-yl)oxy-1-oxophthalazin-2-yl]-N-(5-methylpyrimidin-2-yl)acetamide]",< 1000,,31,
"Cc1cnc(NC(=O)Cn2nc(OC3CC4(C3)CC4(F)F)c3cc(Br)ccc3c2=O)nc1 (single isomer, unassigned) [Example 22, 2-[6-bromo-4-(2,2-difluorospiro[2.3]hexan-5-yl)oxy-1-oxophthalazin-2-yl]-N-(5-methylpyrimidin-2-yl)acetamide]",,,815,< 1000
"O=C(Cn1nc(OC2CC3(C2)CC3(F)F)c2cc(Br)ccc2c1=O)Nc1nc2ccccn2n1 (single isomer, unassigned) [Example 25, 2-[6-bromo-4-(2,2-difluorospiro[2.3]hexan-5-yl)oxy-1-oxophthalazin-2-yl]-N-([1,2,4]triazolo[1,5-a]pyridin-2-yl)acetamide]",< 1000,,33,
"O=C(Cn1nc(OC2CC3(C2)CC3(F)F)c2cc(Br)ccc2c1=O)Nc1nc2ccccn2n1 (single isomer, unassigned) [Example 26, 2-[6-bromo-4-(2,2-difluorospiro[2.3]hexan-5-yl)oxy-1-oxophthalazin-2-yl]-N-([1,2,4]triazolo[1,5-a]pyridin-2-yl)acetamide]",,,596,< 1000
"CC[C@@H]1CC1Oc1nn(CC(=O)Nc2ncc(F)cn2)c(=O)c2ccc(Br)cc12 (single isomer, unassigned) [Example 35, 2-[6-bromo-4-[cis-2-ethylcyclopropyl]oxy-1-oxophthalazin-2-yl]-N-(5-fluoropyrimidin-2-yl)acetamide]",< 1000,368,,
